Patent US6306881A, “Anti-inflammatory agents” (British Biotech Pharmaceuticals, priority 1998, dated 2001)

Experiments:
[1] = tested on: male Lewis rats; assay: Rat Adjuvant Arthritis Model; assay type: in vivo; conditions: Day 10 to Day 21, vs vehicle, P<0.05
Procedure: Rat Adjuvant Arthritis Model
Adjuvant arthritis was induced in male Lewis rats on Day 0, using a suspension of mycobacterium butyncum in mineral oil, inoculated subcutaneously, into the base of the tail. The volume of the hind paws was measured regularly to assess the time course of disease progression. […] Nine animals were allocated to each group. Animals received their first treatment on Day 10, either vehicle (2% DMSO in PBSiTween (0.01%v/v)) or test compound, formulated as a suspension in the vehicle. Treatment was administered as an intraperitoneal bolus injection, once daily, for the duration of the study. The study was ended on Day 21. The percent increase in mean paw volume from Day 10 to Day 21 was calculated for each animal and the compound treated groups compared to the vehicle treated control group.

[2] = tested on: Leukotriene Synthesis by Rat Basophilic Leukaemia Cells; assay: Inhibition of Leukotriene Synthesis by Rat Basophilic Leukaemia Cells (RBL-1, A23187 stimulated, LTB4); assay type: cell-based; conditions: RBL-1 cells, 4.75 hours preincubation, 10 μM A23187, 15 minutes at 37° C., value estimated, read-out: IC50 (leukotriene B4 synthesis)
Procedure: Inhibition of Leukotriene Synthesis by Rat Basophilic Leukaemia Cells
The rat basophilic leukaemia cell line RBL-1 was obtained from ATCC or ECACC and cultured in Dulbecco's modified Eagle's medium (DMEM) supplemented with 10% foetal bovine serum, non-essential amino acids, sodium pyruvate, penicillin, streptomycin and 2mM glutamine, at 37° C. in an atmosphere of 5% CO2 in air, as recommended by the culture collection.
RBL-1 cells were harvested during log growth, washed and resuspended in Hanks Balanced Salt Solution, without calcium chloride and magnesium chloride, supplemented with 10% foetal bovine serum and penicillin, streptomycin, and 2mM glutamine and adjusted to a final cell concentration of 1.25×10^5 cells/ml. Cells incubated in the presence of the appropriate concentration of inhibitor or vehicle for 4.75 hours at 37° C. Cells then transferred to ice for 15 minutes. Cells washed by centrifugation and resuspension in prechilled Phosphate Buffered Saline, with calcium chloride and magnesium chloride, supplemented with the appropriate concentration of test sample. […]
Treated cells then exposed to 10 μM A23187 for 15 minutes at 37° C. […] The levels of leukotriene B4 then determined in the cell free supernatant using the Leukotriene B4 [^3 H] assay system from Amersham Pharmacia Biotech.

[3] = molecular target: T1, LTA4-hydrolase (Rattus norvegicus, UniProt P30349); assay: Inhibition of LTA4 hydrolase activity (LTB4 formation by radioimmunoassay); assay type: biochemical; conditions: crude fraction from rat lung, 1 minute at 37° C.
T1 construct: was prepared as a crude fraction from rat lung tissue; from tissue; host or cells: rat lung tissue, crude fraction
T1 sequence (P30349 1-611): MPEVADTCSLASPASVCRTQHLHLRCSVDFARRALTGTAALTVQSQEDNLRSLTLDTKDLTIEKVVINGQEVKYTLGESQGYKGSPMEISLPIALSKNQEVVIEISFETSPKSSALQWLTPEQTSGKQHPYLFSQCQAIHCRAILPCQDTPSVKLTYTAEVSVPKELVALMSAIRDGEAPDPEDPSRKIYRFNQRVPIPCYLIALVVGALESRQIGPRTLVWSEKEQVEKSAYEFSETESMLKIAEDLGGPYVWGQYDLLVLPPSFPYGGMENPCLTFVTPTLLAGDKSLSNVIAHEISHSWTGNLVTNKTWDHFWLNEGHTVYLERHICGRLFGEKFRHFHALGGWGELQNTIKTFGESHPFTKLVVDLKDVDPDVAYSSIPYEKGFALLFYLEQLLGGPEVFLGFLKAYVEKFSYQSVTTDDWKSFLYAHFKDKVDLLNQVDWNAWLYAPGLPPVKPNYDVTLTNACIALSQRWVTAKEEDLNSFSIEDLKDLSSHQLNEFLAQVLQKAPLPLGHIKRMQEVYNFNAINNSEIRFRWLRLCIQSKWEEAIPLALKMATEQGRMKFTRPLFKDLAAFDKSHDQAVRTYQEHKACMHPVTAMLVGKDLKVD
Procedure: LTA4 -hydoiase was prepared as a crude fraction from rat lung tissue. The sodium salt of LTA4 was incubated with the enzyme and test compounds at 10 μM for 1 minute at 37° C. The reaction was terminated by the addition of ice-cold methanol. Formation of LTB4 was assessed by radioimmunoassay. Results are expressed as a percentage inhibition of LTA4 hydrolase activity.

[4] = tested on: LTA4 hydrolase; conditions: isolated enzyme; T. D. Penning et al, 1995; cited from earlier work
[5] = tested on: cells; conditions: cited from earlier work

| IC50 [2] [nM] | inhibition at 10 µM [3] [%] | Compound | inhibition of paw swelling ([1]; 30mg/kg i.p. once daily) [%] | inhibition of paw swelling ([1]; 100mg/kg i.p. once daily) [%] | LTA4 hydrolase inhibitory activity [4] | ability to penetrate cells [5] |
| --- | --- | --- | --- | --- | --- | --- |
| 2 | 78 | C=CC[C@H](C(=O)NO)[C@@H](CC(C)C)C(=O)N[C@@H](Cc1ccccc1)C(=O)OC1CCCC1 [Example 19, 2S-(3S-Hydroxycarbamoyl-2R-isobutyl-hex-5-enoylamin)-3-phenylpropionic acid cyclopentyl ester] | 60 | 77 |  |  |
|  | 75 | C=CC[C@H](C(=O)NO)[C@@H](CC(C)C)C(=O)N[C@H](C(=O)OC1CCCC1)c1ccccc1 [Example 40, 2S-(3S-Hydroxycarbamoyl-2R-isobutyl-hex-5-enoylamino)-2-phenylethanoic acid cyclopentyl ester] |  |  |  |  |
|  |  | CC(C)C[C@H](NC(=O)[C@@H](O)[C@H](N)Cc1ccccc1)C(=O)O [bestatin] |  |  | exhibit LTA4 hydrolase inhibitory activity against isolated enzyme | unable to effectively penetrate cells |
|  |  | C[C@H](CS)C(=O)N1CCC[C@H]1C(=O)O [captopril] |  |  | exhibit LTA4 hydrolase inhibitory activity against isolated enzyme | unable to effectively penetrate cells |
| 350 | 80 | C[C@H](NC(=O)[C@@H](CC(=O)NO)Cc1ccccc1)C(=O)O [kelatorphan] |  |  | exhibit LTA4 hydrolase inhibitory activity against isolated enzyme | unable to effectively penetrate cells |
